Here are results for 1 molecule from US8404851B2, “1,3,5-trisubstituted triazole derivative” (Janssen Pharmaceutica NV, priority 2007, dated 2013).

For data set [1], the target named is T1, hα7-wt nAChR (Homo sapiens, UniProt P36544).
T1 construct: expressed in transfected cells
In words: Ca2+ flux imaging (FDSS), PAM activity with choline. In kind it is cell-based. The note with it: hα7-wt nAChR-expressing GH4C1 cells; potentiation of choline 100 μM; compound 0.01 μM to 30 μM. On the procedure:
Ca^2+ Flux Imaging (FDSS) […]
PAM activity was detected in real time by applying the compound to be tested to the loaded cells along with a α7 nicotinic receptor agonist during constant monitoring of the cellular calcium mobilization by fluorescence in a FDSS. […]
A control response to choline was calculated on each plate from the difference in peak in fluorescence in wells receiving either choline or assay buffer alone. […]
EC50 values (potency), maximal effect (% efficacy), and Hill slopes were estimated by fitting the sigmoidal equation to the data using GraphPad Prism (GraphPad Software, Inc., San Diego, Calif.). An EC50 (or pEC50) was determined as a concentration relating to half the maximal effect, when a clear sigmoidal curve with top plateau was obtained.
(A change in cytosolic calcium serves as a functional read-out for many receptors and channels.)

Data set [2] concerns the target T1, hα7-wt nAChR. In words: Whole-cell voltage-clamp recording, PAM activity with choline. In kind it is cell-based. As to conditions: qualitative kinetic properties, 1 mM choline, GH4C1 cells. Further details: key: Type 1 compounds enhance the effect size of the current elicited by 1 mM choline but minimally alter the kinetics of the receptor.; Type 2 compounds enhance the effect size of the current elicited by 1 mM choline while reducing the rate and/or the extent of desensitization.; Type 3 compounds enhance the effect size of the current elicited by 1 mM choline. When tested at higher concentrations up to 10 μM they completely inhibit desensitization; Type 4 compounds allow for an initial desensitization of the receptor followed by a re-opening of the receptor during agonist application. On the procedure:
The compounds of the present invention are classified as type 1-4, based on qualitative kinetic properties, as determined by whole-cell voltage-clamp recordings. This classification is based on the effect of an α7 PAM compound, as described hereinbefore, on the signal elicited by an agonist application. In particular, said agonist is choline at a concentration of 1 mM. In a preferred experimental setting, said α7 PAM compound and choline are simultaneously applied to the cell, as described hereinafter. Desensitization as described hereinafter is the closure of the receptor upon activation during the application of the agonist in whole-cell voltage-clamp electrophysiology measurements seen as the reduction of the […] current after initial activation by the agonist.
The definition of the PAM types 1-4 is described hereinafter: • Type 1 compounds enhance the effect size of the current elicited by 1 mM choline but minimally alter the kinetics of the receptor. In particular, the rate and the extent of desensitization, elicited by the agonist, is not affected. […]
The compound of the present invention also has a potentiating effect on the response to choline when measured by whole-cell voltage clamp electrophysiology in GH4C1 cells stably over-expressing the human wild-type α7 receptor, as described hereinafter. […]

T1 sequence (P36544 23-502): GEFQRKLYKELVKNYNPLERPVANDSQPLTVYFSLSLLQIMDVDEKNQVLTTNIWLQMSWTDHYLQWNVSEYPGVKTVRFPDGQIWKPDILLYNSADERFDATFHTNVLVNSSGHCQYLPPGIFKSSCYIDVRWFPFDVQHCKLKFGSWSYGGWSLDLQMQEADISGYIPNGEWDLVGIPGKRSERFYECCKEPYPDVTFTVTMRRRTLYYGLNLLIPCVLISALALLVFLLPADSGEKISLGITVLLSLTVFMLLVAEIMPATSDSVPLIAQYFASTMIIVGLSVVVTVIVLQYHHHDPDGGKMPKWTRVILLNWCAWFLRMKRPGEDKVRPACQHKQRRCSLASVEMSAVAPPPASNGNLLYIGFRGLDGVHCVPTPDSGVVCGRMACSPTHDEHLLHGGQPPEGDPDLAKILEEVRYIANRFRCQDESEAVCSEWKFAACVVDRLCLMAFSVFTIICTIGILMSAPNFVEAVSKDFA

For orientation: EC50 means the concentration giving half of the maximal effect. What is called melting point is the temperature of the solid-liquid transition. With `CCNC(=O)Cn1nc(Nc2ccc3c(c2)OC(F)(F)O3)nc1-c1cc(C)nc(C)c1` [Compound E1, 2-[3-(2,2-Difluoro-benzo[1,3]dioxol-5-ylamino)-5-(2,6-dimethyl-pyridin-4-yl)-[1,2,4]-triazol-1-yl]-N-ethyl-acetamide], the melting point turned out to be 242.28 °C. Moreover, the EC50 at hα7-wt nAChR [1] was 309 nM. The PAM_type on hα7-wt nAChR [2] stood at 2.
